Our source for the solubility values is patent US10800801B2, “Crystalline platinum-based compounds” (AKAMARA THERAPEUTICS, INC., priority 2016, dated 2020).

This data set is described as follows: physchem. In kind it is physicochemical. The settings on record: water, Approximate Solubility. Here is the method: Despite this, the screen offered a list of suitable solvents/solvent mixtures and anti-solvents to be used for the crystallization experiments. Using information obtained from the initial investigation into the solubility of IO-125, a series of bench scale crystallization experiments were carried out in order to provide examples of solution-based crystallization method that yield crystalline IO-125. Within this investigation, a number of techniques were designed to find suitable crystallization conditions including: using controlled linear cooling of IO-125 in different solvents, anti-solvent additions, evaporations and seeding. […] A significant mass loss was then observed in thermogravimetric trace from approx. 270° C., and was coupled with a large endothermic event with onset of 288.4° C. and peak at 297.2° C. in the differential thermogram. Again, this is likely associated with the decomposition of IO-125.
Initially a series of solvents and mixture of solvents were screened to select suitable solvents for the crystallization procedure.

The solubility is how much of the substance goes into solution per volume. A high value points to a readily soluble substance. For `CC(C)CCC[C@@H](C)[C@H]1CCC2C3CC=C4C[C@@H](OCCN(CC(=O)[O-])CC(=O)[O][Pt+]5[NH][C@@H]6CCCC[C@H]6[NH]5)CC[C@]4(C)C3CC[C@@]21C` (stereo partly shown) [Comp 25], the solubility was not above 10000 µg/mL.
